Results: US20230065562A1, “DUAL CONTROLS FOR THERAPEUTIC CELL ACTIVATION OR ELIMINATION” (Bellicum Pharmaceuticals, Inc., priority 2015, published 2023)

Columns and labels:
[1] = test system: iCasp9M-transduced EBV-CTLs; assay: CID-induced apoptosis / loss of GFP+ cells in iCasp9M-transduced EBV-CTLs; format: cell-based, human
Protocol: CID (AP20187; ARIAD Pharmaceuticals) at indicated concentrations was added to transfected 293T cells or transduced CTLs. Adherent and nonadherent cells were harvested and washed with annexin binding buffer (BD Pharmingen, San Jose, Calif.). Cells were stained with annexin-V and 7-amino-actinomycin D (7-AAD) for 15 minutes according to the manufacturer's instructions (BD Pharmingen). Within 1 hour after staining, cells were analyzed by flow cytometry using CellQuest software (Becton Dickinson).
Inducible iCasp9M proficiency in CTLs was tested by monitoring loss of GFP-expressing cells after administration of CID; 91.3% (range, 89.5%-92.6% in 5 different donors) of GFP^+ cells were eliminated after a single 10-nM dose of CID. […] In all experiments, CTLs that survived CID treatment had low transgene expression with a 70% (range, 55%-82%) reduction in mean fluorescence intensity of GFP after CID. No further elimination of the surviving GFP^+ T cells could be obtained by an antigenic stimulation followed by a second 10-nM dose of CID. Therefore, the non-responding CTLs most likely expressed insufficient iCasp9M for functional activation by CID. To investigate the correlation between low levels of expression and CTL non-response to CID, CTLs were sorted for low, intermediate, and high expression of the linked marker gene GFP and mixed 1:1 with nontransduced CTLs from the same donor to allow for an accurate quantitation of the number of transduced T cells responding to CID-induced apoptosis.
The number of transduced T cells eliminated increased with the level of GFP transgene expression (see FIGS. 4A, 4B and 4C). To determine the correlation between transgene expression and function of iCasp9M, iCasp9M IRES.GFP-transduced EBV-CTL were selected for low (mean 21), intermediate (mean 80) and high (mean 189) GFP expression. Selected T-cells were incubated overnight with 10 nM CID and subsequently stained with annexin V and 7-AAD. Indicated are the percentages of annexin V+/7-AAD− and annexin V+/7-AAD+ T−. Selected T-cells were mixed 1:1 with non-transduced T-cells and incubated with 10 nM CID following antigenic stimulation. Indicated is the percentage of residual GFP-positive T-cells on day 7.
For GFPhigh-selected cells, 10 nM CID led to deletion of 99.1% (range, 98.7%-99.4%) of transduced cells. On the day of antigen stimulation, F-Casp9M.I.GFP-transduced CTLs were either untreated or treated with 10 nM CID. Seven days later, the response to CID was measured by flow cytometry for GFP. The percentage of transduced T cells was adjusted to 50% to allow for an accurate measurement of residual GFP^+ cells after CID treatment. The responses to CID in unselected (top row of and GFPhigh-selected CTLs (bottom row of was compared. The percentage of residual GFP^+ cells is indicated.
After overnight incubation with 10 nM CID, F-Casp9M.I.GFPhigh-transduced T cells had apoptotic characteristics such as cell shrinkage and fragmentation by microscopic evaluation. […] A representative example of 3 separate experiments is shown.

[2] = test system: HLA-B7+Bob-1+ U266 multiple myeloma; assay: iMC-Bob-1 TCR cytotoxicity and IL-2 secretion against U266; format: cell-based
Source text: FIG. 120: (A) iMC-Bob-1 TCR-mediated cytotoxicity against HLA-B7^+Bob-1^+ U266 multiple myeloma is rimiducid-independent. […] Go156 TCR is a negative control TCR.

[3] = GFPhigh-selected, overnight 10 nM CID, mean
[4] = representative example of 3 experiments

Compound | concentration sufficient to obtain the maximal deletion effect ([1]; F-Casp9M.I.GFPhigh, day 7) [nM] | deletion of transduced cells ([1]; GFPhigh-selected cells, 10 nM CID) [%] | apoptotic (annexin-V+/7-AAD−) phenotype [1, 3] [%] | necrotic (annexinV+/7-AAD+) phenotype [1, 3] [%] | reduction in mean fluorescence intensity of GFP in surviving CTLs ([1]; after CID) [%] | apoptotic phenotype (annexin V+, 7-AAD−) [1, 4] [%] | necrotic phenotype (annexin V+, 7-AAD+) [1, 4] [%] | GFP+ cells eliminated ([1]; single 10-nM dose of CID, unselected CTLs, 5 donors) [%] | iMC-Bob-1 TCR-mediated cytotoxicity against U266 ([2]; FIG. 120A) | IL-2 secretion, Bob-1 TCR with rimiducid-driven iMC costimulation, U266 ([2]; FIG. 120B)
CC[C@H](C(=O)N1CCCC[C@H]1C(=O)O[C@H](CCc1ccc(OC)c(OC)c1)c1cccc(OCC(=O)NCC(CNC(=O)COc2cccc([C@@H](CCc3ccc(OC)c(OC)c3)OC(=O)[C@@H]3CCCCN3C(=O)[C@@H](CC)c3cc(OC)c(OC)c(OC)c3)c2)CN(C)C)c1)c1cc(OC)c(OC)c(OC)c1 [AP20187] | 1 | 99.1 | 64 | 30 | 70 | 64 | 32 | 91.3 | – | –
CC[C@H](C(=O)N1CCCC[C@H]1C(=O)O[C@H](CCc1ccc(OC)c(OC)c1)c1cccc(OCC(=O)NCCNC(=O)COc2cccc([C@@H](CCc3ccc(OC)c(OC)c3)OC(=O)[C@@H]3CCCCN3C(=O)[C@@H](CC)c3cc(OC)c(OC)c(OC)c3)c2)c1)c1cc(OC)c(OC)c(OC)c1 [rimiducid] | – | – | – | – | – | – | – | – | rimiducid-independent | maximal IL-2 secretion
